Assay results from patent publication US20200216906A1, “METHODS AND COMPOSITIONS RELATING TO THE DIAGNOSIS AND TREATMENT OF CANCER” (PRESIDENT AND FELLOWS OF HARVARD COLLEGE, priority 2015, published 2020).
Where a name gives a salt, the structure may show the parent alone.

Experiments:
[1] = cited from earlier work
[2] = test system: H2052 (LATS2) cells; experiment: Gemcitabine and dFdU efflux by LC-MS/MS, H2052 cells; type: in vitro ADME; details: higher in H2052 (LATS2)
Source text: Are defects in the Hippo pathway the major cause of gemcitabine sensitivity? […] Restoring the levels of LATS2 in H2052 cells caused an increase in the mRNA and proteins levels of ABCG2 and CDA (FIGS. 23C, 36A-36M).

[3] = test system: H2052 mesothelioma cells (LATS2 deletion); experiment: Cell growth of H2052 mesothelioma cells; type: cell-based
[4] = test system: Panc02.13 cells; experiment: Radiolabeled gemcitabine efflux; type: in vitro ADME, human; details: counts per μg protein; more in Hippo-ON
Method: Panc02.13 cells expressing GFP or YapS6A plasmid were treated with radiolabeled gemcitabine (0.5 μM) for one hour. Cells were washed twice with PBS and incubated in fresh medium. Medium was collected over the time course of 24 hours and radioactivity was measured using scintillation counter.
(§1) It was considered whether the Hippo pathway might affect the efflux of gemcitabine and/or its metabolites. To assess directly gemcitabine efflux in conditioned media of pancreatic cancer cells both radiolabeled gemcitabine and LC-MS/MS-based methods were used. Panc02.13 cells grown in highly crowded conditions (Hippo-ON) pumped out 2-3-fold more radiolabeled gemcitabine (counts per μg protein) compared with cells grown in less crowded conditions (Hippo-OFF) (FIG. 22A). Another pathway of inactivation and export is the enzymatic conversion of gemcitabine to a uracil derivative (2′,2′-difluorodeoxyuridine, dFdU) by deamination catalyzed by cytidine deaminase (CDA)(Veltkamp et al., 2008). The efflux of gemcitabine and its deaminated metabolite, dFdU was measured by LC-MS/MS (24) in Panc02.13 cells expressing YAPS6A or vector control after gemcitabine treatment (FIG. 22B).
Measuring gemcitabine efflux. […] Medium was collected over the time course of 24 hours and radioactivity was measured using scintillation counter.

[5] = test system: Miapaca2-YAPS6A xenografts; experiment: Mouse xenograft, Miapaca2-YAPS6A; type: in vivo
Method: (§2) To assess the gemcitabine response to Hippo pathway inactivation in tumors a mouse xenograft model of pancreatic carcinoma cells and patient-derived xenograft (PDX) models from a variety of solid tumors including human cancers from non-small cell lung, esophagus, breast, mesothelium, ovary, colon, head and neck, sarcoma, and cholangiocarcinoma were used (FIG. 30). In mouse xenograft studies, two human pancreatic cancer cell lines (Miapac2 and Panc02.13) expressing GFP or YAPS6A were injected into athymic mice. Both parental or GFP expressing cells grew rapidly, producing palpable tumors in 5-10 days. When the tumors were ˜200 mm^3 (as measured using a caliper), mice were randomized into treatment and control groups. The […] received i.p. saline injections on alternate days for two weeks, and the latter received gemcitabine (20 mg/kg in Miapaca2-YAPS6A and 50 mg/Kg in Panc02.13-YAPS6A cohorts).
Tumorigenicity in Nude Mice. All in vivo experiments were performed using 6-week-old to 8-week-old athymic nude mice. Mice were maintained in laminar flow rooms with constant temperature and humidity. Miapaca2 or Panc02.13 cells were inoculated subcutaneously (s.c.) into each flank of the mice. Cells (2×10^6 in suspension) were injected on day 0, and tumor growth was followed every 2 to 3 days by tumor diameter measurements using vernier calipers. Tumor volumes (V) were calculated using the formula: V=AB2/2 (A, axial diameter; B, rotational diameter). When the outgrowths were • 200 mm^3, mice were divided at random into two groups (control and treated, n=3-8). The treated group received gemcitabine injection or saline control on alternate days (MWF) for 2 weeks.
Intra-tumor gemcitabine measurements.

[6] = test system: Panc02.13-YAPS6A xenografts; experiment: Mouse xenograft, Panc02.13-YAPS6A; type: in vivo; details: 50 mg/Kg, alternate days for two weeks
Method: In mouse xenograft studies, two human pancreatic cancer cell lines (Miapac2 and Panc02.13) expressing GFP or YAPS6A were injected into athymic mice. […] When the tumors were ˜200 mm^3 (as measured using a caliper), mice were randomized into treatment and control groups. The former received i.p. saline injections on alternate days for two weeks, and the latter received gemcitabine (20 mg/kg in Miapaca2-YAPS6A and 50 mg/Kg in Panc02.13-YAPS6A cohorts).
Tumorigenicity in Nude Mice. All in vivo experiments were performed using 6-week-old to 8-week-old athymic nude mice. Mice were maintained in laminar flow rooms with constant temperature and humidity. […] Cells (2×10^6 in suspension) were injected on day 0, and tumor growth was followed every 2 to 3 days by tumor diameter measurements using vernier calipers. Tumor volumes (V) were calculated using the formula: V=AB2/2 (A, axial diameter; B, rotational diameter). When the outgrowths were • 200 mm^3, mice were divided at random into two groups (control and treated, n=3-8). The treated group received gemcitabine injection or saline control on alternate days (MWF) for 2 weeks.

[7] = test system: patient-derived xenograft (PDX) models; experiment: Patient-derived xenograft (PDX) models, tumor growth inhibition; type: in vivo, mouse; details: 20 PDX models, p=0.01
Source text: An alternative to an endogenous mouse models for capturing effects of the tumor environment are patient-derived xenograft (PDX) models. […] At the cellular level, PDX models also preserve the intra-tumoral heterogeneity, as well as the molecular characteristics of the original cancer, including copy number variants, single-nucleotide polymorphisms, and gene expression profiles (Choi et al., 2014; DeRose et al., 2011). […] When patient-derived xenograft PDX models were used to assess whether YAP activation sensitizes solid tumors to gemcitabine significant effects were found. The studies were performed in the following manner: Tumor fragments (around 64 mm^3) were implanted into the flanks of recipient mice and tumor dimensions recorded with digital calipers. Once tumor implants reached a volume of approximately 200 mm3, dosing with gemcitabine (or vehicle control) began. At the completion of the study completion, the percent tumor growth inhibition (% TGI) was calculated for gemcitabine (G) and the vehicle control (C) using initial (i) and final (f) tumor measurements by the formula: % TGI=[1−(Gf−Gi)/(Cf−Ci)]x100.
Patient-derived xenograft (PDX) models. PDX models were established by Champions Oncology (Baltimore, Md.) as described previously (Khor et al., 2015). Drug response to 20 PDX models was obtained from Champions TumorGraft® Database (available on the world wide web at database.championsoncology.com/).
Immunohistochemistry. Human primary tumor tissue slides were obtained from Champions Oncology (Baltimore, Md.). Immunohistochemistry using anti YAP1 antibody (Abcam Cat # ab52771) was performed as previously described (Shi et al., 1999). For negative controls, primary antibody was omitted. The intensity of YAP staining was assessed by an independent pathologist using a four-grade scale: “0” is negative. “0.5” is borderline staining with no significance. “1” is weak staining. “1.5” is weak staining with foci of moderate staining. “2” is moderate staining. […] YAP scoring index was calculated based on staining intensity * % of positive target cells.

[8] = test system: Panc02.13-parental xenografts; experiment: Mouse xenograft, Panc02.13-parental; type: in vivo; details: alternate days for two weeks
Method: as §2
Tumorigenicity in Nude Mice. All in vivo experiments were performed using 6-week-old to 8-week-old athymic nude mice. Mice were maintained in laminar flow rooms with constant temperature and humidity. Miapaca2 or Panc02.13 cells were inoculated subcutaneously (s.c.) into each flank of the mice. […] Tumor volumes (V) were calculated using the formula: V=AB2/2 (A, axial diameter; B, rotational diameter). […]

[9] = test system: Panc02.13 cells expressing YAPS6A; experiment: Gemcitabine and dFdU efflux by LC-MS/MS, Panc02.13 YAPS6A vs GFP; type: in vitro ADME, human; details: less efflux in YAPS6A (Hippo-OFF), p<0.05
Source text: as §1

## Nc1ccn([C@@H]2O[C@H](CO)[C@@H](O)C2(F)F)c(=O)n1 [Gemcitabine, Gemcitabine hydrochloride]
[1]; patients treated with gemcitabine
  Patients without objective response to treatment: > 75%
[1]; standard-of-care therapy, pancreatic cancer
  Median overall survival: six
[2]
  Effluxed gemcitabine in media, H2052 (LATS2) vs parental H2052 (LATS2−/−): ~10 fold
[3]
  Sensitivity of mesothelioma cells harboring LATS2 deletion: sensitive
[4]
  Radiolabeled gemcitabine pumped out, highly crowded vs less crowded: 2-3 fold
[5]; 20 mg/kg, alternate days for two weeks
  Growth of xenografts: significantly slowed
[5]; cleaved caspase 7 and phosphor-H2aX
  Induction in apoptosis vs parental controls: > 2 fold
[6]
  Tumor volume: significant regression
[7]
  Difference in % TGI, high vs low YAP activity tumors: ~2 fold
[8]
  Growth of xenografts: no affect
[9]
  Gemcitabine effluxed, YAPS6A vs GFP expressing cells: 10 fold
